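The compound was tested at five concentrations on cells cultured in 96-well plates, with a 48-hour exposure period. Definition used: TGI = concentration required for complete inhibition of growth.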 The source made the active and inactive calls. Rule as the data show it: active = GI50 below about 0.43 µM; inactive = the rest.
What was measured:
Test in all cases: NCI-60 cell line screen, 48 h
SR leukemia = system: SR leukemia
SK-MEL-5 melanoma = system: SK-MEL-5 melanoma
HL-60(TB) leukemia = system: HL-60(TB) leukemia
HT29 colon = system: HT29 colon
HCC-2998 colon = system: HCC-2998 colon
A549 NSCLC = system: A549 NSCLC
RPMI-8226 leukemia = system: RPMI-8226 leukemia
SK-MEL-2 melanoma = system: SK-MEL-2 melanoma
IGROV1 ovarian = system: IGROV1 ovarian
HCT-15 colon = system: HCT-15 colon
NCI-H522 lung = system: NCI-H522 lung
MOLT-4 leukemia = system: MOLT-4 leukemia
HCT-116 colon = system: HCT-116 colon
OVCAR-4 ovarian = system: OVCAR-4 ovarian
SK-MEL-28 melanoma = system: SK-MEL-28 melanoma
SF-295 CNS = system: SF-295 CNS
SF-268 CNS = system: SF-268 CNS
K-562 leukemia = system: K-562 leukemia
KM12 colon = system: KM12 colon
UACC-62 melanoma = system: UACC-62 melanoma
KM20L2 colon = system: KM20L2 colon
MALME-3M melanoma = system: MALME-3M melanoma
786-0 renal = system: 786-0 renal
SW-620 colon = system: SW-620 colon
NCI-H460 lung = system: NCI-H460 lung
OVCAR-8 ovarian = system: OVCAR-8 ovarian
LOX IMVI melanoma = system: LOX IMVI melanoma
SN12C renal = system: SN12C renal
COLO 205 colon = system: COLO 205 colon
OVCAR-3 ovarian = system: OVCAR-3 ovarian
RXF-631 renal = system: RXF-631 renal
SNB-19 CNS = system: SNB-19 CNS
NCI-H23 lung = system: NCI-H23 lung
SNB-78 CNS = system: SNB-78 CNS
CAKI-1 renal = system: CAKI-1 renal
DLD-1 colon = system: DLD-1 colon
XF 498 CNS = system: XF 498 CNS
RXF 393 renal = system: RXF 393 renal
SF-539 CNS = system: SF-539 CNS
SNB-75 CNS = system: SNB-75 CNS
OVCAR-5 ovarian = system: OVCAR-5 ovarian
ACHN renal = system: ACHN renal
M14 melanoma = system: M14 melanoma
NCI-H226 lung = system: NCI-H226 lung
U251 CNS = system: U251 CNS
EKVX NSCLC = system: EKVX NSCLC
M19-MEL melanoma = system: M19-MEL melanoma
LXFL 529 NSCLC = system: LXFL 529 NSCLC
UACC-257 melanoma = system: UACC-257 melanoma
CCRF-CEM leukemia = system: CCRF-CEM leukemia
UO-31 renal = system: UO-31 renal
SK-OV-3 ovarian = system: SK-OV-3 ovarian
HOP-62 NSCLC = system: HOP-62 NSCLC
TK-10 renal = system: TK-10 renal
HOP-92 NSCLC = system: HOP-92 NSCLC
DMS 273 small cell lung = system: DMS 273 small cell lung

C/C(O)=C/c1nc2ccccc2[nH]1
TGI (SR leukemia): > 100 µM | TGI (SK-MEL-5 melanoma): > 100 µM | TGI (HL-60(TB) leukemia): > 100 µM | TGI (HT29 colon): > 100 µM | TGI (HCC-2998 colon): > 100 µM | TGI (A549 NSCLC): > 100 µM | TGI (RPMI-8226 leukemia): > 100 µM | TGI (SK-MEL-2 melanoma): > 100 µM | TGI (IGROV1 ovarian): > 100 µM | TGI (HCT-15 colon): > 100 µM | TGI (NCI-H522 lung): > 100 µM | TGI (MOLT-4 leukemia): > 100 µM | TGI (HCT-116 colon): > 100 µM | TGI (OVCAR-4 ovarian): > 100 µM | TGI (SK-MEL-28 melanoma): > 100 µM | TGI (SF-295 CNS): > 100 µM | TGI (SF-268 CNS): > 100 µM | TGI (K-562 leukemia): > 100 µM | TGI (KM12 colon): > 100 µM | TGI (UACC-62 melanoma): > 100 µM | TGI (KM20L2 colon): > 100 µM | TGI (MALME-3M melanoma): > 100 µM | TGI (786-0 renal): > 100 µM | TGI (SW-620 colon): > 100 µM | TGI (NCI-H460 lung): > 100 µM | TGI (OVCAR-8 ovarian): > 100 µM | TGI (LOX IMVI melanoma): > 100 µM | TGI (SN12C renal): > 100 µM | TGI (COLO 205 colon): > 100 µM | TGI (OVCAR-3 ovarian): > 100 µM | TGI (RXF-631 renal): > 100 µM | TGI (SNB-19 CNS): > 100 µM | TGI (NCI-H23 lung): > 100 µM | TGI (SNB-78 CNS): > 100 µM | TGI (CAKI-1 renal): > 100 µM | TGI (DLD-1 colon): > 100 µM | TGI (XF 498 CNS): > 100 µM | TGI (RXF 393 renal): > 100 µM | TGI (SF-539 CNS): > 100 µM | TGI (SNB-75 CNS): 78.8 µM | TGI (OVCAR-5 ovarian): > 100 µM | TGI (ACHN renal): > 100 µM | TGI (M14 melanoma): > 100 µM | TGI (NCI-H226 lung): > 100 µM | TGI (U251 CNS): > 100 µM | TGI (EKVX NSCLC): > 100 µM | TGI (M19-MEL melanoma): > 100 µM | TGI (LXFL 529 NSCLC): > 100 µM | TGI (UACC-257 melanoma): > 100 µM | TGI (CCRF-CEM leukemia): > 100 µM | TGI (UO-31 renal): > 100 µM

C[C@@]1(CO)O[C@H]1CCC#C[Si](C)(C)C
outcome (SK-OV-3 ovarian): inactive | outcome (SR leukemia): inactive | outcome (HOP-62 NSCLC): inactive | outcome (HL-60(TB) leukemia): inactive | outcome (HT29 colon): inactive | outcome (A549 NSCLC): inactive | outcome (RPMI-8226 leukemia): inactive | outcome (SK-MEL-2 melanoma): inactive | outcome (IGROV1 ovarian): inactive | outcome (HCT-15 colon): inactive | outcome (NCI-H522 lung): inactive | outcome (MOLT-4 leukemia): inactive | outcome (OVCAR-4 ovarian): inactive | outcome (SF-295 CNS): inactive | outcome (SF-268 CNS): inactive | outcome (TK-10 renal): inactive | outcome (K-562 leukemia): inactive | outcome (KM12 colon): inactive | outcome (UACC-62 melanoma): inactive | outcome (KM20L2 colon): inactive | outcome (MALME-3M melanoma): inactive | outcome (786-0 renal): inactive | outcome (HOP-92 NSCLC): inactive | outcome (SW-620 colon): inactive | outcome (NCI-H460 lung): inactive | outcome (OVCAR-8 ovarian): inactive | outcome (LOX IMVI melanoma): inactive | outcome (SN12C renal): inactive | outcome (COLO 205 colon): inactive | outcome (OVCAR-3 ovarian): inactive | outcome (RXF-631 renal): inactive | outcome (SNB-19 CNS): inactive | outcome (NCI-H23 lung): inactive | outcome (SNB-78 CNS): inactive | outcome (CAKI-1 renal): inactive | outcome (DLD-1 colon): inactive | outcome (XF 498 CNS): inactive | outcome (RXF 393 renal): inactive | outcome (SF-539 CNS): inactive | outcome (SNB-75 CNS): inactive | outcome (OVCAR-5 ovarian): inactive | outcome (ACHN renal): inactive | outcome (M14 melanoma): inactive | outcome (NCI-H226 lung): inactive | outcome (U251 CNS): inactive | outcome (EKVX NSCLC): inactive | outcome (LXFL 529 NSCLC): inactive | outcome (UACC-257 melanoma): inactive | outcome (CCRF-CEM leukemia): inactive | outcome (UO-31 renal): inactive | outcome (DMS 273 small cell lung): inactive
